Test results taken from ChEMBL document CHEMBL1201862, “PubChem BioAssay data set” (2004).
Calls of active or inactive are those of the source.

How the values were obtained:
[1] = A375 melanoma cell viability loss, dose response, counter-screen for MITF inhibitor project, CellTiter-Glo luminescence, dry powder, set 4 (AID 624364); type: functional, cell-based; conditions: A-375;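 further: A375 melanoma cells are MITF independent so this is a counter screen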
[2] = A375 melanoma cell cytotoxicity, dose response, counter-screen for MITF inhibitor project, CellTiter-Glo luminescence, dry powder, set 2 (AID 624489); type: functional, cell-based; conditions: A-375;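 further: actives are compounds lowering A375 viability meaning general cytotoxicity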
[3] = target: 1-phosphatidylinositol 4,5-bisphosphate phosphodiesterase gamma-1 (Homo sapiens, UniProt P19174); experiment: Counterscreen for inhibitors of phospholipase C isozymes (PLC-B3): Fluorescence-based biochemical high throughput dose response assay to identify inhibitors of phospholipase C isozymes (PLC-gamma1).
[4] = target: 1-phosphatidylinositol 4,5-bisphosphate phosphodiesterase beta-3 (Homo sapiens, UniProt Q01970); experiment: Fluorescence-based biochemical high throughput dose response assay to identify inhibitors of phospholipase C isozymes (PLC-B3).
[5] = control 3'UTR Renilla luciferase suppression, dose response, counter-screen for Shn3 inhibitor project, cell-based, Clone20-Shn3RL, cherry-picked (AID 624133); type: functional
[6] = Shn3 3'UTR reporter inhibitors, dose response, cell-based, Clone20 osteoblasts, firefly luciferase, cherry-picked (AID 624132); type: functional;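 further: firefly luciferase luminescence from reporter carrying the Shn3 3'UTR in osteoblasts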
[7] = target: Disintegrin and metalloproteinase domain-containing protein 17 (Homo sapiens, UniProt P78536); experiment: ADAM17 protease inhibitors, dose response, counter-screen for ADAM10 exosite inhibitor project, biochemical, quenched FRET substrate (AID 743253)
[8] = ADAM10 inhibitors, peptide cleavage, dose response, biochemical, QFRET (AID 743254);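 further: ADAM10 enzyme with the DM2 quenched FRET peptide as substrate; EDANS fluorescence gain as the protease cuts the substrate; inhibitor potency against ADAM10 proteolytic activity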
Paired box protein Pax-8 = Paired box protein Pax-8 (Homo sapiens, UniProt Q06710); experiment: inhibitors of PAX8-driven TPO luciferase reporter, dose response, RMG-I cells, cherry-pick (AID 687027); type: functional, cell-based;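 further: luciferase reporter driven by Pax8 target thyroperoxidase promoter measured by SteadyGlo luminescence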
Vero [9] = experiment: Vero cell cytotoxicity, cytotoxicity control for flavivirus capping enzyme inhibitors (AID 588742); type: functional; conditions: Chlorocebus sabaeus
Genome polyprotein = Genome polyprotein (dengue virus type 2, UniProt P29990); experiment: Dengue-2 NS5 methyltransferase inhibitors, primary screen, biochemical, confirmation dose response (AID 588689); type: functional
Leucine aminopeptidase = target: T1, Leucine aminopeptidase (Plasmodium falciparum 3D7, UniProt Q8IL11); experiment: P. falciparum M17LAP inhibitors, primary screen, biochemical, fluorogenic H-Leu-NHMec substrate, 1536-well (AID 1619); type: functional
T1 sequence (Q8IL11 whole entry): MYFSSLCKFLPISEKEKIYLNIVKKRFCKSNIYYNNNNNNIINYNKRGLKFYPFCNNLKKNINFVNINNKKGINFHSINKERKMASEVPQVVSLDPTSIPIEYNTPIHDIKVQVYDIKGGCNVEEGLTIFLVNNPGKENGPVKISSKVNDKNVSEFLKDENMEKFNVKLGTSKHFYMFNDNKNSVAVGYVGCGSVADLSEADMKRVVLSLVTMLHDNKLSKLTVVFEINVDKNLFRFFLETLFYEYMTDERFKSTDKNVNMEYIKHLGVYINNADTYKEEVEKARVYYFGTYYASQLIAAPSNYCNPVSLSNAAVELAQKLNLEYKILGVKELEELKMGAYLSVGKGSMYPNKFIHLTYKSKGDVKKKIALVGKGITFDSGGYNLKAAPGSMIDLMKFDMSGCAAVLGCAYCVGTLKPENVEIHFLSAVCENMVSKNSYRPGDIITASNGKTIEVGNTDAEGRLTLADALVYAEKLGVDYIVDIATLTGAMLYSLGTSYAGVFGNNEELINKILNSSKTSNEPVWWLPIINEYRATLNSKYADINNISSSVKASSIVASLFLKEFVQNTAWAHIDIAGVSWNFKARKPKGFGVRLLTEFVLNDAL

[10] = LGR2 antagonists, dose response, cell-based, HEK293, CRE-luciferase reporter, cherry pick, set 2 (AID 743343); type: functional;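 further: transfected cells were stimulated with diluted bursicon conditioned medium after compound addition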
[11] = HEK293 cell cytotoxicity, dose response, cytotoxicity control, plate reader, cherry-picked samples (AID 743446); type: functional, cell-based
[12] = HepG2 cell cytotoxicity, dose response, cytotoxicity control, plate reader, cherry-pick, antagonist series (AID 743416); type: functional, cell-based
[13] = A549 cell cytotoxicity, dose response, cytotoxicity control, plate reader, cherry-pick, antagonist series (AID 743412); type: functional, cell-based
[14] = MC4R antagonists, dose response, counter-screen for LGR2 antagonist project, cell-based, plate reader, cherry pick (AID 743444); type: functional;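 further: transfected HEK 293 cells stimulated with alpha-MSH peptide; potency of inhibitors of the alpha-MSH evoked signal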
[15] = non-specific cell cytotoxicity, dose response, cytotoxicity control for PAX8 inhibitor project, plate reader, dry powder samples (AID 743021); type: functional, cell-based
[16] = NIH:OVCAR-3 ovarian cancer cell cytotoxicity, dose response, PAX8 inhibitor project, plate reader, dry powder samples (AID 743044); type: functional, cell-based
Vero [17] = experiment: Vero cell toxicity, dose response, cytotoxicity control, plate reader, cherry-pick samples (AID 687020); type: functional, cell-based; conditions: Chlorocebus sabaeus
[18] = target: T2, Heat shock factor protein 1 (Mus musculus, UniProt P38532); experiment: inhibition of MG132-induced HSE-luciferase signal, confirmation, cell-based, NIH3T3, luminescence, dose retest (AID 2382); type: functional;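 further: NIH3T3 fibroblasts with HSF1-driven luciferase reporter stressed by proteasome inhibitor MG132; luminescence from HSF1-driven luciferase expression after 8 hours of MG132 stress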
T2 sequence (P38532 whole entry): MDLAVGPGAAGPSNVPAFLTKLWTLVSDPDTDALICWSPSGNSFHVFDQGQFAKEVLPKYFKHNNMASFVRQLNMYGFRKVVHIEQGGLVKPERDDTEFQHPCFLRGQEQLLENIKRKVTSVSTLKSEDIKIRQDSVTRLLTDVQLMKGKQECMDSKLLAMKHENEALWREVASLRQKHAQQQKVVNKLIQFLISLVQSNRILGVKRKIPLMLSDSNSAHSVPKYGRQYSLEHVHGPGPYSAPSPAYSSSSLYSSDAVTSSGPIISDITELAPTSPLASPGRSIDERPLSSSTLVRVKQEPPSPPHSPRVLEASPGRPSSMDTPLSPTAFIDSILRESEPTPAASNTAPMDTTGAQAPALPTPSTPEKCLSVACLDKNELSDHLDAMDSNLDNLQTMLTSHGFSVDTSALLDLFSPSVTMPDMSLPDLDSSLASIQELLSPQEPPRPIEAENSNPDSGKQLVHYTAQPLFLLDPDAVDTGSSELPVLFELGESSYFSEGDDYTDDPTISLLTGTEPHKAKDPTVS

Sequence of 1-phosphatidylinositol 4,5-bisphosphate phosphodiesterase beta-3 (Q01970 whole entry): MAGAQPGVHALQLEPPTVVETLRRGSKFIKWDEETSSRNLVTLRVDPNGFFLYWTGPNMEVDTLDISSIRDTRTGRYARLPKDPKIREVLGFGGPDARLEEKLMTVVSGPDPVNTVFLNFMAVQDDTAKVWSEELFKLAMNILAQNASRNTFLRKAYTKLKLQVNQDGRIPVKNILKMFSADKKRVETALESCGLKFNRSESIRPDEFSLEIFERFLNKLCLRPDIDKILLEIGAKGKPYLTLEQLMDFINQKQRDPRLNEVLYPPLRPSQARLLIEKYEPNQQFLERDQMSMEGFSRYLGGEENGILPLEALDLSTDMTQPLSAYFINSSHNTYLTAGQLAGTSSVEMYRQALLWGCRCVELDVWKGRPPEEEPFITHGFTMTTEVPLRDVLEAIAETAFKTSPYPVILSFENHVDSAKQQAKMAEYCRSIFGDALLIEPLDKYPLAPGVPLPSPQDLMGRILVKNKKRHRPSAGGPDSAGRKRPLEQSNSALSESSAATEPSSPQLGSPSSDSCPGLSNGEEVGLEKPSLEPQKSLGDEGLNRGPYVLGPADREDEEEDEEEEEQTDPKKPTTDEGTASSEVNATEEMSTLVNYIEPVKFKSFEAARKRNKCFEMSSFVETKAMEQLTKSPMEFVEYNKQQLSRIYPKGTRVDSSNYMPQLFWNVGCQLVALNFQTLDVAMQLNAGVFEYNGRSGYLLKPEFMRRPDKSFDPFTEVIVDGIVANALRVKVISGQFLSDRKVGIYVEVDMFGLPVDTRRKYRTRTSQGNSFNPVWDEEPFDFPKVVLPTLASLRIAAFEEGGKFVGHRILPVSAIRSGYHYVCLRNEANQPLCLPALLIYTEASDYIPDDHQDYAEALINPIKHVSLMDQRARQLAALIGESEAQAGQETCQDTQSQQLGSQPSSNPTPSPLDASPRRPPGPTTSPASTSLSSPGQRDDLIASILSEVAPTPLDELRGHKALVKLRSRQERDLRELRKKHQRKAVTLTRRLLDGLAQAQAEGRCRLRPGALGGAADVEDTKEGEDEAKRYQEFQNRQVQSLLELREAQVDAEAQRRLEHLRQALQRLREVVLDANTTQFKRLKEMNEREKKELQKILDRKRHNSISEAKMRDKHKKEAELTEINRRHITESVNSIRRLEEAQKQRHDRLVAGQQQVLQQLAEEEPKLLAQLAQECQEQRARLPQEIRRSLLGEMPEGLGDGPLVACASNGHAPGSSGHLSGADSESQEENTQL
Sequence of Disintegrin and metalloproteinase domain-containing protein 17 (P78536 whole entry, the tested form may be a part): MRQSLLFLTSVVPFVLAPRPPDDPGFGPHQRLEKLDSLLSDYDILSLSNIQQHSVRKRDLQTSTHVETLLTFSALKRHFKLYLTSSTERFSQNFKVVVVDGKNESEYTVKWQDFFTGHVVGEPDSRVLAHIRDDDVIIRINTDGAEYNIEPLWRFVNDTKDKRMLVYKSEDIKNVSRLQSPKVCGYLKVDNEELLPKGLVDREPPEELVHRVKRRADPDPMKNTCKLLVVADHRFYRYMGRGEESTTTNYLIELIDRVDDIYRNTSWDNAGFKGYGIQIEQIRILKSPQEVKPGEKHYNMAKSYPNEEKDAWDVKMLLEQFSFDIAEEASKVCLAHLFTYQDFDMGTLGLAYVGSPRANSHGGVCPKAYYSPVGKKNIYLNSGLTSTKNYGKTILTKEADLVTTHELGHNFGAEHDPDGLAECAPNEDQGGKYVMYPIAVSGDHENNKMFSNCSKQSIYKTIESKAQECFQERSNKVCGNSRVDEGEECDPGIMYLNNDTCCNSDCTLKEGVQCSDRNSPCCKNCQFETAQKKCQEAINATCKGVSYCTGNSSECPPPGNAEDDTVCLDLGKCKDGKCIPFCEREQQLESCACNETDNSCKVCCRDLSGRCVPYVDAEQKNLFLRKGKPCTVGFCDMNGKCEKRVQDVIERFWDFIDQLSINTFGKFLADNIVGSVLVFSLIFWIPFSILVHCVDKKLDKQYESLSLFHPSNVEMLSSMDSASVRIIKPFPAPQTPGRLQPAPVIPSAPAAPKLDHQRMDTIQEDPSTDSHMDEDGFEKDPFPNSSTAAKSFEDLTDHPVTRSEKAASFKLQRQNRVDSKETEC
Sequence of 1-phosphatidylinositol 4,5-bisphosphate phosphodiesterase gamma-1 (P19174 whole entry): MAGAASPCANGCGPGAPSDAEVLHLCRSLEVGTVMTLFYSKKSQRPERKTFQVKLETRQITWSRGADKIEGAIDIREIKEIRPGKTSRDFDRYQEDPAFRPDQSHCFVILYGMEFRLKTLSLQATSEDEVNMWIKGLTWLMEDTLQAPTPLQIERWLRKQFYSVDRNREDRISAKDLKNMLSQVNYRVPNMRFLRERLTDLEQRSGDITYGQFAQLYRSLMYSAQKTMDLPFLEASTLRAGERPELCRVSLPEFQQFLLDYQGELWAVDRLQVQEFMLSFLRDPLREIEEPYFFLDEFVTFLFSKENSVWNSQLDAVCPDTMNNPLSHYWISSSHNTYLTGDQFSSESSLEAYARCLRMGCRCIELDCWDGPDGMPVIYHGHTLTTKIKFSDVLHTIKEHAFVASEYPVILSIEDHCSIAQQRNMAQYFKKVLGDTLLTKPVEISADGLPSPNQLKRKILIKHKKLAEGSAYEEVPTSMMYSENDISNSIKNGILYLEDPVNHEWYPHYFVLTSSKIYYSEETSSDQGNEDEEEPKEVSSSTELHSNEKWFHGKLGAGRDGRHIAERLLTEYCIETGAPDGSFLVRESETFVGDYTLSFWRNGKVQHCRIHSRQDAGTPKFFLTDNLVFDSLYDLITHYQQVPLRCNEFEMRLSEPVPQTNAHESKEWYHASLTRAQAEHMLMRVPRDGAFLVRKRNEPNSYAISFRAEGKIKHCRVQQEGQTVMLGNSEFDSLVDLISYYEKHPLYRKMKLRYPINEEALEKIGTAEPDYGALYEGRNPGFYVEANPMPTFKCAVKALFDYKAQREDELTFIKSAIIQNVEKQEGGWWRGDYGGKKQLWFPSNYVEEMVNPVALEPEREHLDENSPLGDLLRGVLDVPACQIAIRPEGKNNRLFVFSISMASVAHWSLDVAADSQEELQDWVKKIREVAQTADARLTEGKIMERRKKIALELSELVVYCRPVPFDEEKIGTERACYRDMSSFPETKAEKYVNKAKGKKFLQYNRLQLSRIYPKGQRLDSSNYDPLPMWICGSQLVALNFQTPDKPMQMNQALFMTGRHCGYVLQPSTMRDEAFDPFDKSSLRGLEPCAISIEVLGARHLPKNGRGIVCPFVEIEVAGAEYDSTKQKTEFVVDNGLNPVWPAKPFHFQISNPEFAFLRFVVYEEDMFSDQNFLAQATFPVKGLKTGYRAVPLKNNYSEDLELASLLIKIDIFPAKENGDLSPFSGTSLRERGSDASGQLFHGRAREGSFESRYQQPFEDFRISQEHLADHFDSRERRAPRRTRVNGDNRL
Sequence of Paired box protein Pax-8 (Q06710 whole entry): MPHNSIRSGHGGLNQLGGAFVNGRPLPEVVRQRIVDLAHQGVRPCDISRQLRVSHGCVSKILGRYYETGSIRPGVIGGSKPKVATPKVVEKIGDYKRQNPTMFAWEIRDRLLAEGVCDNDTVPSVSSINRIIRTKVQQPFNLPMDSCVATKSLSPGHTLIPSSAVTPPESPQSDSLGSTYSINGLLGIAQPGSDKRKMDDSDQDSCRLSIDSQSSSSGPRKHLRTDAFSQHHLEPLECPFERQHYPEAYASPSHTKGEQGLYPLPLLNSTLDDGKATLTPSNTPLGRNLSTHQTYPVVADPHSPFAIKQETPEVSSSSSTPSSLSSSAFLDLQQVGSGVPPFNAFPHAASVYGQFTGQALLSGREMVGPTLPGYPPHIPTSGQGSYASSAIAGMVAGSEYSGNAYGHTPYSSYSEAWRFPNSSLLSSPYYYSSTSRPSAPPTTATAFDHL
Sequence of Genome polyprotein (P29990 2492-3391 limits assumed): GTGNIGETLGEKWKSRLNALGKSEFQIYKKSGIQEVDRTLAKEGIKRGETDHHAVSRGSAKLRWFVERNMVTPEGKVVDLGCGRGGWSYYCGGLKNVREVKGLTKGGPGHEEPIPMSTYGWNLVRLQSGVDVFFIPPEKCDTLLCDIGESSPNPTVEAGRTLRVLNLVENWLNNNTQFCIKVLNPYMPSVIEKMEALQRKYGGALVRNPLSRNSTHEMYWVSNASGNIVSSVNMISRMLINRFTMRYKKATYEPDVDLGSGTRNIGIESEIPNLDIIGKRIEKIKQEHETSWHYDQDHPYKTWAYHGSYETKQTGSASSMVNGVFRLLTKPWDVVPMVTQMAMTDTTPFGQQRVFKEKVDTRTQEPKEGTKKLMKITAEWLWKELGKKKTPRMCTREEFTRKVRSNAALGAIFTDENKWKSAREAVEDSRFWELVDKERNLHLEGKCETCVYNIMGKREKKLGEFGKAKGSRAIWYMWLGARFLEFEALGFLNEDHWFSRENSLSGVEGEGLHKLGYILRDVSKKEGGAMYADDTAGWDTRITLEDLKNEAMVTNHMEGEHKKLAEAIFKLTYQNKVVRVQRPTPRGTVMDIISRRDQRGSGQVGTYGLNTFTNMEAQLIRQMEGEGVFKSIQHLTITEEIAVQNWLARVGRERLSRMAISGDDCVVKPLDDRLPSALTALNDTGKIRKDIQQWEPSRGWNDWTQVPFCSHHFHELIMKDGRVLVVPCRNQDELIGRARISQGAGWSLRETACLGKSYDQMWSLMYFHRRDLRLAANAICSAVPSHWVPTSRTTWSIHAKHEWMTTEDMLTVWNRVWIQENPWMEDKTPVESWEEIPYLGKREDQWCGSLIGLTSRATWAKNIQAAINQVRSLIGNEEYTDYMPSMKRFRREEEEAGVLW

For `COc1ccc(C(=O)NC2=C(c3ccc(OC(F)(F)F)cc3)C(=O)c3ccccc3C2=O)cc1`, which AC50 [1] is on record?
The AC50 was 41 µM (active).

What about the AC50 [2] of the same compound?
Its AC50 is 23.4 µM (active).

Which IC50 [3] does the source give for `CC(=O)N1C[C@@H](c2c[nH]c3ccccc23)C=C[C@H]1C(=O)NS(=O)(=O)c1ccc(C)cc1` here?
Its IC50 is > 4.54 µM (active).

And the IC50 [4]?
The IC50 was > 122 µM (inactive).

Which AC50 [5] does the source give for `C=CCC[C@H](Cc1ccc(F)cc1)C(=O)OC[C@H](Cc1c[nH]c2ccccc12)NC(=O)[C@H](CC=C)CC(=O)N(CCO)Cc1ccccc1` here?
Its AC50 is 20.1 µM (active).

And the AC50 [6]?
Its AC50 is 11.7 µM (active).

What about the IC50 [7] of the same compound?
Its IC50 is > 69.5 µM (inactive).

What about the IC50 [8] of the same compound?
The IC50 was 6.93 µM (active).

And the AC50 (Paired box protein Pax-8)?
The AC50 was 12.9 µM (active).

For `O=Cc1cc(N=Nc2cccc(C(=O)O)c2)ccc1O`, which IC50 [3] is on record?
The IC50 was 23.7 µM (inactive).

What about the CC50 (Vero [9]) of the same compound?
Its CC50 is > 40 µM (active).

What about the IC50 (Genome polyprotein) of the same compound?
Its IC50 is 99.6 µM (active).

What about the IC50 (Leucine aminopeptidase) of the same compound?
The IC50 was 51.5 µM (active).

What about the IC50 [4] of the same compound?
The IC50 was > 122 µM (inactive).

Which results are given for `CCCCn1nnnc1C(CCc1ccccc1)N1CCC(n2c(O)nc3ccccc32)CC1` (stereo unspecified)?
AC50 [10]: 20.1 µM (active); AC50 [11]: 19.8 µM (active); AC50 [12]: > 52 µM (inactive); AC50 [13]: 19 µM (active); AC50 [14]: 7.55 µM (active)

Which AC50 [15] does the source give for `COc1ccc(S(=O)(=O)N(C)C[C@@H]2OCCCC[C@H](C)Oc3ccc(NS(=O)(=O)c4ccc(Cl)cc4)cc3C(=O)N([C@H](C)CO)C[C@@H]2C)cc1` here?
Its AC50 is 58.4 µM (active).

And the AC50 [16]?
The AC50 was 26.9 µM (active).

And the AC50 (Paired box protein Pax-8)?
Its AC50 is 4.8 µM (active).

For `CC1(C)CC(NC(=O)COc2ccccc2Cl)CC(C)(C)N1`, which AC50 (Vero [17]) is on record?
Its AC50 is 33.7 µM (active).

And the EC50 [18]?
The EC50 was 2.65 µM (active).

For `CCCCc1c(-c2cccc(OC)c2)ncn1CCc1ccccc1OC`, which AC50 [10] is on record?
The AC50 was 16.3 µM (active).

What about the AC50 [11] of the same compound?
Its AC50 is 29 µM (active).

What about the AC50 [12] of the same compound?
Its AC50 is 15.1 µM (active).

And the AC50 [13]?
The AC50 was 19.2 µM (active).

And the AC50 [14]?
The AC50 was 12.9 µM (active).

For `CCOc1ccc(/C=N/NC(=O)Cc2csc(Nc3cccc(C(F)(F)F)c3)n2)c(OCC)c1`, which IC50 [7] is on record?
Its IC50 is > 69.5 µM (inactive).

What about the IC50 [8] of the same compound?
Its IC50 is > 69.5 µM (inactive).
